According to paper PMC6001238, “Iterative Chemical Engineering of Vancomycin Leads to Novel Vancomycin Analogs With a High in Vitro Therapeutic Index” (Frontiers in Microbiology, 2018):
Converted amounts (≈) assume the structure as drawn. Read-outs that look alike come from different tables or passages of the source.

Key:
MRSA KS2 = assay: MIC, broth microdilution, MRSA KS2; assay type: cell-based, Staphylococcus aureus
Method in brief: (§1)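 MIC values come from broth microdilution run to CLSI susceptibility-testing standards. Ultrapure water and uninoculated broth served as controls. In one series, vancomycin at a final 10 μM was co-dosed with the analogue or comparator antibiotic.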

MRSA [1] = assay: Time-kill curves, MRSA at 4x MIC; assay type: cell-based, Staphylococcus aureus; details: 1-24 h
Protocol: Time-kill curves were determined based on the CLSI guidelines ([Clinical and Laboratory Standards Institute [CLSI], 1999]). Single colonies grown overnight at 37°C were resuspended in Ca^2+-adjusted (0.05 mg/mL) Mueller Hinton broth up to an optical density (625 nm) of 0.08–00.10 (corresponding to the 0.5 McFarland standard), followed by a 10-fold dilution in the same broth. Subsequently, 0.2 mL inoculum was added to 1.7 mL Ca^2+-adjusted (0.05 mg/mL) Mueller Hinton broth, followed by addition of the antibacterial compound (0.1 mL). The final concentration of the antibacterial compound corresponded to the 4x MIC value for that compound. For the antibiotic-free control, the compound was replaced by an equal volume of ultrapure water. The final inoculum concentration was approximately 10^6 CFU/mL. The cultures were continuously shaken at 37°C. After 1, 2, 4, 6, 8, and 24 h, a 0.1 mL aliquot was removed, serially diluted in cold 0.9% w/v NaCl and plated on BHI (VRE) and LB (MRSA) agar plates. Plates were incubated overnight at 37°C and colonies were counted.

VE 82 (VanC1) = assay: MIC, VanC1-type VRE strain VE 82; assay type: cell-based, Enterococcus gallinarum; details: Enterococcus gallinarum; VE 82, VanC1; read-out: MIC
Protocol: (§2) The minimum inhibitory concentration (MIC) was determined using the broth microdilution method according to the antimicrobial susceptibility testing standards of the clinical and laboratory standards institute ([Clinical and Laboratory Standards Institute [CLSI], 2012]). Ultrapure water and non-inoculated broth were used as controls. In one case, a final concentration of 10 μM vancomycin was included with the vancomycin analog or control antibiotic.

[2] = tested on: S. aureus VSSA (ATCC 6538); assay: MIC, broth microdilution, vancomycin-sensitive S. aureus (VSSA/MSSA, ATCC 6538); assay type: cell-based, Staphylococcus aureus
Method in brief: as §1

[3] = tested on: human T-lymphocyte (CEM) cells; assay: Cytostatic activity, CEM cell proliferation; assay type: cell-based; details: Homo sapiens, CCRF-CEM, 72 h; mean ± SD of three experiments; highest concentration tested 250 µM; 3 days; read-out: Toxicity (IC50) CEM
Method in brief: (§3)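 Coulter counter cell counts after 37°C culture with compound; IC50 = concentration giving 50% growth inhibition vs negative control. Incubation: L1210 2 d, CEM 3 d, HeLa 4 d. Suspension density before mixing with an equal volume of dilution: 300,000–500,000 cells/mL.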

S. aureus VISA/HIP5827 = assay: MIC, broth microdilution, vancomycin-intermediate S. aureus VISA HIP5827; assay type: cell-based, Staphylococcus aureus
Method in brief: as §1

MRSA KS89 = assay: MIC, broth microdilution, MRSA KS89; assay type: cell-based, Staphylococcus aureus
Method in brief: as §1

MRSA [4] = assay: Minimum bactericidal concentration against MRSA; assay type: cell-based, Staphylococcus aureus
Protocol: Plates were incubated overnight at 37°C and colony growth was inspected.

VE 148 (VanB) = assay: MIC, VanB-type VRE strain VE 148; assay type: cell-based, Enterococcus; details: Enterococcus; VE 148, VanB; read-out: MIC
Protocol: as §2

E. faecalis VRE 37 = assay: MIC, broth microdilution, vancomycin-resistant E. faecalis VRE 37 (VanA); assay type: cell-based, Enterococcus faecalis
Method in brief: as §1

[5] = tested on: L1210, CEM and HeLa cell lines; assay: Cytostatic activity, average or summary over L1210, CEM and HeLa; assay type: cell-based
Method in brief: as §3

MRSA KS1 = assay: MIC, broth microdilution, MRSA KS1; assay type: cell-based, Staphylococcus aureus
Method in brief: as §1

VE 152 (VanB) = assay: MIC, VanB-type VRE strain VE 152; assay type: cell-based, Enterococcus; details: Enterococcus; VE 152, VanB; read-out: MIC
Protocol: as §2

E. faecalis VSE 1 = assay: MIC, broth microdilution, vancomycin-sensitive E. faecalis (VSE 1); assay type: cell-based, Enterococcus faecalis
Method in brief: as §1

VE 157 (VanB) = assay: MIC, VanB-type VRE strain VE 157; assay type: cell-based, Enterococcus; details: Enterococcus; VE 157, VanB; read-out: MIC
Protocol: as §2

VE 149 (VanB) = assay: MIC, VanB-type VRE strain VE 149; assay type: cell-based, Enterococcus; details: Enterococcus; VE 149, VanB; read-out: MIC
Protocol: as §2

S. aureus VRSA = assay: MIC, broth microdilution, vancomycin-resistant S. aureus (VRSA); assay type: cell-based, Staphylococcus aureus
Method in brief: as §1

[6] = tested on: human cervix carcinoma (HeLa) cells; assay: Cytostatic activity, HeLa cell proliferation; assay type: cell-based; details: Homo sapiens, HeLa, 96 h; mean ± SD of three experiments; highest concentration tested 250 µM; 4 days; read-out: Toxicity (IC50) HeLa
Method in brief: as §3

E. faecalis VRE 53 = assay: MIC, broth microdilution, vancomycin-resistant E. faecalis VRE 53 (VanA); assay type: cell-based, Enterococcus faecalis
Method in brief: as §1

[7] = tested on: 24 clinical MRSA isolates; assay: MIC against a set of 24 clinical MRSA isolates (range, MIC50, TI); assay type: cell-based, Staphylococcus aureus
Protocol: as §2

VE 150 (VanB) = assay: MIC, VanB-type VRE strain VE 150; assay type: cell-based, Enterococcus; details: Enterococcus; VE 150, VanB; read-out: MIC
Protocol: as §2

E. faecalis VRE 6 = assay: MIC, broth microdilution, vancomycin-resistant E. faecalis VRE 6 (VanA); assay type: cell-based, Enterococcus faecalis
Method in brief: as §1

33 clinical VRE isolates = assay: MIC against a set of 33 clinical VRE isolates (range, MIC50, TI); assay type: cell-based, Enterococcus faecalis
Protocol: as §2

E. faecalis VRE 29 = assay: MIC, broth microdilution, vancomycin-resistant E. faecalis VRE 29 (VanA); assay type: cell-based, Enterococcus faecalis
Method in brief: as §1

[8] = tested on: Murine leukemia (L1210) cells; assay: Cytostatic activity, L1210 cell proliferation; assay type: cell-based; details: Mus musculus, L1210, 48 h; mean ± SD of three experiments; highest concentration tested 250 µM; 2 days; read-out: Toxicity (IC50) L1210
Method in brief: as §3

MRSA KS6 = assay: MIC, broth microdilution, MRSA KS6; assay type: cell-based, Staphylococcus aureus
Method in brief: as §1

CC(=O)NC[C@H]1CN(c2ccc(N3CCOCC3)c(F)c2)C(=O)O1 [Linezolid, reference compound]
MIC-fold improvement vs. vancomycin (MRSA KS2; MRSA KS2, ratio of MIC of vancomycin and MIC of analogue): 0.1
MIC (MRSA KS2; Staphylococcus aureus, MRSA): 6.25 µM (≈ 2.11 µg/mL)
time-kill curve character (MRSA [1]): typical bacteriostatic time-kill curve
MIC (VE 82 (VanC1)): 12.5 µM (≈ 4.22 µg/mL)
MIC ([2]; ATCC6538, Staphylococcus aureus VSSA, read-out: MIC): > 3.13 µM
MIC-fold improvement vs. vancomycin ([2]; VSSA, ratio of MIC of vancomycin and MIC of analogue): <0.2
IC50 [3]: > 250 µM
MIC (S. aureus VISA/HIP5827; Staphylococcus aureus, VISA): 3.13 µM (≈ 1.06 µg/mL)
MIC-fold improvement vs. vancomycin (S. aureus VISA/HIP5827; VISA/HIP5827, ratio of MIC of vancomycin and MIC of analogue): 2
MIC-fold improvement vs. vancomycin (MRSA KS89; MRSA KS8 (head; KS89 in title), ratio of MIC of vancomycin and MIC of analogue): 0.1
MIC (MRSA KS89; Staphylococcus aureus, MRSA): 6.25 µM (≈ 2.11 µg/mL)
MBC relative to MIC (MRSA [4]): more than four times higher than the corresponding MIC
MIC (VE 148 (VanB)): 12.5 µM (≈ 4.22 µg/mL)
MIC (E. faecalis VRE 37; Enterococcus faecalis, VRE): 6.25 µM (≈ 2.11 µg/mL)
MIC-fold improvement vs. vancomycin (E. faecalis VRE 37; VRE 37, ratio of MIC of vancomycin and MIC of analogue): 64
IC50 ([5]; average IC50 used for TI in Table S5, >250 entered as 250, read-out: IC50): 208 µM
IC50 ([5]; average of L1210, CEM and HeLa, read-out: Toxicity (IC50) Average): 208 µM
MIC-fold improvement vs. vancomycin (MRSA KS1; MRSA KS1, ratio of MIC of vancomycin and MIC of analogue): 0.05
MIC (MRSA KS1; Staphylococcus aureus MRSA KS1, read-out: MIC): 12.5 µM (≈ 4.22 µg/mL)
MIC (VE 152 (VanB)): 12.5 µM (≈ 4.22 µg/mL)
MIC (E. faecalis VSE 1; VSE1, Enterococcus faecalis VSE 1 (vancomycin-sensitive), read-out: MIC): > 3.13 µM
MIC-fold improvement vs. vancomycin (E. faecalis VSE 1; VSE 1, ratio of MIC of vancomycin and MIC of analogue): <0.5
MIC (VE 157 (VanB)): 12.5 µM (≈ 4.22 µg/mL)
MIC (VE 149 (VanB)): 12.5 µM (≈ 4.22 µg/mL)
MIC (S. aureus VRSA; Staphylococcus aureus VRSA): 6.25 µM (≈ 2.11 µg/mL)
MIC-fold improvement vs. vancomycin (S. aureus VRSA; VRSA, ratio of MIC of vancomycin and MIC of analogue): 16
IC50 [6]: 216 ± 48 µM
MIC (E. faecalis VRE 53; Enterococcus faecalis, VRE): 6.25 µM (≈ 2.11 µg/mL)
MIC-fold improvement vs. vancomycin (E. faecalis VRE 53; VRE 53, ratio of MIC of vancomycin and MIC of analogue): 64
MIC Range ([7]; 24 clinical MRSA isolates): 6.25 to 25 µM
MIC50 ([7]; Staphylococcus aureus, median MIC, 24 clinical MRSA isolates, read-out: MIC50): 25 µM (≈ 8.43 µg/mL)
TI (IC50/MIC50) ([7]; in vitro therapeutic index, MRSA): 8
MIC (VE 150 (VanB)): 12.5 µM (≈ 4.22 µg/mL)
MIC (E. faecalis VRE 6; Enterococcus faecalis VRE 6 (vancomycin-resistant), read-out: MIC): 12.5 µM (≈ 4.22 µg/mL)
MIC-fold improvement vs. vancomycin (E. faecalis VRE 6; VRE 6, ratio of MIC of vancomycin and MIC of analogue): 16
MIC Range (33 clinical VRE isolates; 33 clinical VRE isolates): 3.13 to 50 µM
MIC50 (33 clinical VRE isolates; Enterococcus, median MIC, 33 clinical VRE isolates, read-out: MIC50): 6.25 µM (≈ 2.11 µg/mL)
TI (IC50/MIC50) (33 clinical VRE isolates; in vitro therapeutic index, VRE): 33
MIC (E. faecalis VRE 29; Enterococcus faecalis, VRE): 6.25 µM (≈ 2.11 µg/mL)
MIC-fold improvement vs. vancomycin (E. faecalis VRE 29; VRE 29, ratio of MIC of vancomycin and MIC of analogue): 64
IC50 [8]: 157 ± 7 µM
MIC-fold improvement vs. vancomycin (MRSA KS6; MRSA KS6, ratio of MIC of vancomycin and MIC of analogue): 0.1
MIC (MRSA KS6; Staphylococcus aureus, MRSA): 6.25 µM (≈ 2.11 µg/mL)
